According to ChEMBL document CHEMBL1153173, “Oxygenated analogues of UK-396082 as inhibitors of activated thrombin activatable fibrinolysis inhibitor” (Bioorg Med Chem Lett, 2010):

Experiments:
Carboxypeptidase B2 = target: T1, Carboxypeptidase B2 (Homo sapiens, UniProt Q96IY4); assay: Inhibition of active form of human recombinant TAFI assessed as substrate turnover every 15 seconds for 30 mins
T1 sequence (Q96IY4 whole entry): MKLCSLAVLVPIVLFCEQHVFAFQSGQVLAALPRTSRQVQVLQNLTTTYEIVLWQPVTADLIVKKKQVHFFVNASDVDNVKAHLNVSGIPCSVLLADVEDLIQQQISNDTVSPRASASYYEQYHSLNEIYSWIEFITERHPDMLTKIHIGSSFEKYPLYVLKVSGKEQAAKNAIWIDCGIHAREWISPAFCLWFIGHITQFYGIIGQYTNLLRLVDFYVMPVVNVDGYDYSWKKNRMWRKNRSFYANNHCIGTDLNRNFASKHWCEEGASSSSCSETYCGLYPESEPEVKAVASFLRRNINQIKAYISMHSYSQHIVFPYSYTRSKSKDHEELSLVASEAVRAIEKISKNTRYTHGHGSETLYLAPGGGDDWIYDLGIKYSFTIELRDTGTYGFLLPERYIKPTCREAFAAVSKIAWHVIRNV

Carboxypeptidase B = target: T2, Carboxypeptidase B (Homo sapiens, UniProt P15086); assay: Inhibition of human pancreatic carboxypeptidase B
T2 sequence (P15086 whole entry): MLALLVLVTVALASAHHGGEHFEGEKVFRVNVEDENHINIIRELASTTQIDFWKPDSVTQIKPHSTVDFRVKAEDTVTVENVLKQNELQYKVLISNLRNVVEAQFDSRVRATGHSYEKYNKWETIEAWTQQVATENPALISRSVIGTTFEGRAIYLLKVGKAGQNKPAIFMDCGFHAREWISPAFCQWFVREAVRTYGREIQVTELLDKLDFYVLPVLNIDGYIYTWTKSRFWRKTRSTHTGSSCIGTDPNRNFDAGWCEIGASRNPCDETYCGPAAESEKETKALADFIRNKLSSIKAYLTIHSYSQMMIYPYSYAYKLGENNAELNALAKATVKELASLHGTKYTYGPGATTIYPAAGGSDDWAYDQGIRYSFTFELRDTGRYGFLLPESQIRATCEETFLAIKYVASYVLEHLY

[1] = Oral bioavailability in rat at 5 mg/kg; assay type: ADME, organism-based; details: in vivo
[2] = Half life in rat at 2 mg/kg, iv; assay type: ADME, organism-based; set-up: dose 2 mg/kg, route intravenous; details: in vivo
[3] = Clearance in rat at 2 mg/kg, iv; assay type: ADME, organism-based; set-up: dose 2 mg/kg, route intravenous; details: in vivo
Plasma = assay: Plasma protein binding in rat; assay type: ADME, cell-free
[4] = Half life in rat at 5 mg/kg, po; assay type: ADME, organism-based; set-up: dose 5 mg/kg, route oral; details: in vivo
[5] = Volume of distribution in rat at 2 mg/kg, iv; assay type: ADME, organism-based; set-up: dose 2 mg/kg, route intravenous; details: in vivo
[6] = Volume of distribution in human at 10 mg/kg, iv; assay type: ADME, organism-based; set-up: dose 10 mg/kg, route intravenous; details: in vivo
[7] = Half life in human at 10 mg/kg, iv; assay type: ADME, organism-based; set-up: dose 10 mg/kg, route intravenous; details: in vivo
[8] = Clearance in human at 10 mg/kg, iv; assay type: ADME, organism-based; set-up: dose 10 mg/kg, route intravenous; details: in vivo

Compound: CCCCn1cnc(CC(OCCN)C(=O)O)c1 (racemic)
- Ki (Carboxypeptidase B2): 15 nM
- Ki (Carboxypeptidase B): 360 nM

Compound: CCCn1cnc(C[C@H](OCCN)C(=O)O)c1
- bioavailability [1]: 9.8%
- half-life [2]: 2.7 h
- clearance [3]: 13.4 mL/min/kg
- PPB (Plasma): 0%
- Ki (Carboxypeptidase B2): 6.7 nM
- half-life [4]: 2.1 h
- Vd [5]: 3.1 L/kg
- Ki (Carboxypeptidase B): 238 nM

Compound: NCCO[C@@H](Cc1cn(CCC2CCCCC2)cn1)C(=O)O
- Ki (Carboxypeptidase B2): 8.2 nM
- Ki (Carboxypeptidase B): 27 nM

Compound: CCCn1cnc(C[C@@H](OCCN)C(=O)O)c1
- Ki (Carboxypeptidase B2): > 10000 nM
- Ki (Carboxypeptidase B): > 10000 nM

Compound: CCCn1cnc(C[C@H](NCCN)C(=O)O)c1
- Ki (Carboxypeptidase B2): 150 nM
- Ki (Carboxypeptidase B): 1160 nM

Compound: C[C@H](CN)O[C@@H](Cc1cn(-c2ccccn2)cn1)C(=O)O
- Ki (Carboxypeptidase B2): 5.8 nM
- Ki (Carboxypeptidase B): 265 nM

Compound: CC(C)(C)c1ccc(-n2cnc(C[C@H](OCCN)C(=O)O)c2)cc1
- Ki (Carboxypeptidase B2): 5.7 nM
- Ki (Carboxypeptidase B): 49 nM

Compound: C[C@H](CN)O[C@@H](Cc1cn(-c2ccccc2)cn1)C(=O)O
- Ki (Carboxypeptidase B2): 7.5 nM
- Ki (Carboxypeptidase B): 240 nM

Compound: Cc1ccccc1-n1cnc(CC(OCCN)C(=O)O)c1 (racemic)
- Ki (Carboxypeptidase B2): 65 nM
- Ki (Carboxypeptidase B): 2720 nM

Compound: NCCO[C@@H](Cc1cn(-c2ccccc2)cn1)C(=O)O
- Ki (Carboxypeptidase B2): 3.5 nM
- Ki (Carboxypeptidase B): 27 nM

Compound: CCCn1cnc(C[C@H](CCCN)C(=O)O)c1 [UK-396,082]
- bioavailability [1]: 10.6%
- half-life [2]: 2.1 h
- clearance [3]: 10.2 mL/min/kg
- PPB (Plasma): 0%
- Ki (Carboxypeptidase B2): 16 nM
- Vd [6]: 0.5 L/kg
- half-life [4]: 2.4 h
- half-life [7]: 4 h
- Vd [5]: 1.9 L/kg
- clearance [8]: 1.5 mL/min/kg
- Ki (Carboxypeptidase B): 206 nM

Compound: CCCn1cnc(CC(OCCNC)C(=O)O)c1 (racemic)
- Ki (Carboxypeptidase B2): 407 nM
- Ki (Carboxypeptidase B): > 10000 nM
